Experimental data taken from US10894784B2, “Heteroarylbenzimidazole compounds” (BAYER PHARMA AKTIENGESELLSCHAFT, priority 2015, dated 2021).

biological target: TBK1 (Homo sapiens (Human), UniProt Q9UHD2); assay: TBK1 low ATP kinase assay (in vitro assay 1); format: biochemical; settings: in vitro assay 1, read-out: TBK1 low ATP kinase assay IC50
Sequence (Q9UHD2 whole entry): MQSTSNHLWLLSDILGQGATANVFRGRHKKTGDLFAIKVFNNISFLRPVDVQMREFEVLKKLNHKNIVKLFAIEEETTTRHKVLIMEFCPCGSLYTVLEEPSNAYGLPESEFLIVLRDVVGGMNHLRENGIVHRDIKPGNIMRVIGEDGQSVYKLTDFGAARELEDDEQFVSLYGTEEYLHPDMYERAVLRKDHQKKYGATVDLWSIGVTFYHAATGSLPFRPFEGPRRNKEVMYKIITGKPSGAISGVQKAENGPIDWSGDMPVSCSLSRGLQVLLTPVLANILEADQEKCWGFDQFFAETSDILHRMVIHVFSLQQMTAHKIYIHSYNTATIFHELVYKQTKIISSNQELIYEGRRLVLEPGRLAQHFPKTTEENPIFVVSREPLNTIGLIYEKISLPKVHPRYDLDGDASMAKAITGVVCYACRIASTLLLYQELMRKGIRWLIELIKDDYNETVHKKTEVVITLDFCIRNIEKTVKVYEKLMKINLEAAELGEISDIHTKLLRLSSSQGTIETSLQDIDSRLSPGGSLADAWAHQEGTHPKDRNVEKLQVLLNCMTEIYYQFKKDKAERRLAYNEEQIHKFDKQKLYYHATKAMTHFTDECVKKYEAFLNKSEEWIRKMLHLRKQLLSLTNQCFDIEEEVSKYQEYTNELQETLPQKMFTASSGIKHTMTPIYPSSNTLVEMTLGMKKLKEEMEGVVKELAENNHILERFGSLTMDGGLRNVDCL

Going from `CC(c1ccnc(Nc2nc3ccc(-c4cc(C(F)(F)F)ncn4)cc3[nH]2)c1)N1CCN(C(=O)CC(F)(F)F)CC1` (single isomer, unassigned) [Example 29.02.01.B, 3,3,3-trifluoro-1-(4-{(1S or 1R)-1-[2-({6-[6-(trifluoromethyl)pyrimidin-4-yl]-1H-benzimidazol-2-yl}amino)pyridin-4-yl]ethyl}piperazin-1-yl)propan-1-one] to `COc1c(-c2ccc3nc(Nc4cc(C(C)N5CCN(C(=O)CC(F)(F)F)CC5)ccn4)[nH]c3c2)ncnc1N1CCC1` (single isomer, unassigned) [Example 111.03, 1-(4-{(1R or 1S)-1-[2-({6-[6-(azetidin-1-yl)-5-methoxypyrimidin-4-yl]-1H-benzimidazol-2-yl}amino)pyridin-4-yl]ethyl}piperazin-1-yl)-3,3,3-trifluoropropan-1-one], the IC50 falls from 8.64 nM to 1.4 nM (6.2-fold).

Going from `CC(c1ccnc(Nc2nc3ccc(-c4cnn(CC5CC5(F)F)c4)cc3[nH]2)c1)N1CCN(C(=O)CC(F)(F)F)CC1` (single isomer, unassigned) [Example 55.02.02, 1-{4-[(1R or 1S)-1-(2-{[6-(1-{[(1R or IS)-2,2-difluorocyclopropyl]methyl}-1H-pyrazol-4-yl)-1H-benzimidazol-2-yl]amino}pyridin-4-yl)ethyl]piperazin-1-yl}-3,3,3-trifluoropropan-1-one] to `Cn1cc(-c2ccc3nc(Nc4cc(CN5CCN(C(=O)CC(F)(F)F)CC5)ccn4)[nH]c3c2)cn1` [Example 37.01, 3,3,3-trifluoro-1-{4-[(2-{[6-(1-methyl-1H-pyrazol-4-yl)-1H-benzimidazol-2-yl]amino}pyridin-4-yl)methyl]piperazin-1-yl}propan-1-one], the IC50 rises from 1.3 nM to 55.3 nM (43-fold).

`COc1c(-c2ccc3nc(Nc4cc(CN5CCN(C(=O)C6(C(F)(F)F)CC6)CC5)ccn4)[nH]c3c2)ncnc1N(C)CC1CC1` [Example 110.03, [4-({2-[(6-{6-[(cyclopropylmethyl)(methyl)amino]-5-methoxypyrimidin-4-yl}-1H-benzimidazol-2-yl)amino]pyridin-4-yl}methyl)piperazin-1-yl][1-(trifluoromethyl)cyclopropyl]methanone] and `CN(CC1CC1)c1cc(-c2ccc3nc(Nc4cc(CN5CCN(C(=O)OC(C)(C)C)CC5)ccn4)[nH]c3c2)ncn1` [Example 141.01, tert-butyl 4-({2-[(6-{6-[(cyclopropylmethyl)(methyl)amino]pyrimidin-4-yl}-1H-benzimidazol-2-yl)amino]pyridin-4-yl}methyl)piperazin-1-carboxylate] are within 1.5-fold of each other in IC50: 52 nM for the first, 43 nM for the second.

First: CC(c1ccnc(Nc2nc3ccc(-c4cc(N5CCC5)ncn4)cc3[nH]2)c1)N1CCN(C(=O)C2CC2)CC1 (single isomer, unassigned) [Example 115.03, (4-{(1R or 1S)-1-[2-({6-[6-(azetidin-1-yl)pyrimidin-4-yl]-1H-benzimidazol-2-yl}amino)pyridin-4-yl]ethyl}piperazin-1-yl)(cyclopropyl)methanone]
Second: CC(c1ccnc(Nc2nc3ccc(-c4ccncn4)cc3[nH]2)c1)N1CCN(C(=O)C2CC2)CC1 (single isomer, unassigned) [Example 23.05.01.A, cyclopropyl{4-[(1R or 1S)-1-(2-{[6-(pyrimidin-4-yl)-1H-benzimidazol-2-yl]amino}pyridin-4-yl)ethyl]piperazin-1-yl}methanone]
The IC50 of the first is 3.3-fold lower: 0.62 nM for the first, 2.05 nM for the second. The first is the more potent here.

`O=C(C1CC1)N1CCN(Cc2ccnc(Nc3nc4ccc(-c5cnc(Cl)nc5)cc4[nH]3)c2)CC1` [Example 45.02.02, {4-[(2-{[6-(2-chloropyrimidin-5-yl)-1H-benzimidazol-2-yl]amino}pyridin-4-yl)methyl]piperazin-1-yl}(cyclopropyl)methanone] and `O=C(C1CC1)N1CCN(Cc2ccnc(Nc3nc4ccc(-c5ncc[nH]5)cc4[nH]3)c2)CC1` [Example 43.01, cyclopropyl{4-[(2-{[6-(1H-imidazol-2-yl)-1H-benzimidazol-2-yl]amino}pyridin-4-yl)methyl]piperazin-1-yl}methanone] are within 1.5-fold of each other in IC50: 380 nM for the first, 262 nM for the second.

Compared with `CCN(CC)c1cc(-c2ccc3nc(Nc4cc(CN5CCN(C(=O)CC(F)(F)F)CC5)ccn4)[nH]c3c2)ncn1` [Example 155.02, 1-(4-{[2-({6-[6-(diethylamino)pyrimidin-4-yl]-1H-benzimidazol-2-yl}amino)pyridin-4-yl]methyl}piperazin-1-yl)-3,3,3-trifluoropropan-1-one], `Cc1cc(-c2ccc3nc(Nc4cc(CN5CCN(C(=O)OC(C)(C)C)CC5)ccn4)[nH]c3c2)nc(N(C)C)n1` [Example 178.01, tert-butyl 4-{[2-({6-[2-(dimethylamino)-6-methylpyrimidin-4-yl]-1H-benzimidazol-2-yl}amino)pyridin-4-yl]methyl}piperazine-1-carboxylate] is 59-fold higher in IC50: 15 nM for the first, 890 nM for the second.

Compared with `Cc1noc(-c2ccc3nc(Nc4cc(CN5C[C@@H](C)N(C(=O)CC(F)(F)F)C[C@@H]5C)ccn4)[nH]c3c2)n1` [Example 16.02.02, 1-{(2R,5S)-2,5-dimethyl-4-[(2-{[6-(3-methyl-1,2,4-oxadiazol-5-yl)-1H-benzimidazol-2-yl]amino}pyridin-4-yl)methyl]piperazin-1-yl}-3,3,3-trifluoropropan-1-one], `Cc1noc(-c2ccc3nc(Nc4cc(CN5CCN(c6ccc(F)cc6F)CC5)ccn4)[nH]c3c2)n1` [Example 101.11, N-(4-{[4-(2,4-difluorophenyl)piperazin-1-yl]methyl}pyridin-2-yl)-6-(3-methyl-1,2,4-oxadiazol-5-yl)-1H-benzimidazol-2-amine] is higher in IC50: 335 nM for the first, > 20000 nM for the second. The first is the more potent here.

Compared with `COc1ccc(-c2ccc3nc(Nc4cc(CN5CCN(C(=O)C6CC6)CC5)ccn4)[nH]c3c2)nn1` [Example 47.01, cyclopropyl{4-[(2-{[6-(6-methoxypyridazin-3-yl)-1H-benzimidazol-2-yl]amino}pyridin-4-yl)methyl]piperazin-1-yl}methanone], `Cc1nccc(-c2ccc3nc(Nc4cc(CN5CCN(C(=O)C6CC6)CC5)ccn4)[nH]c3c2)c1Cl` [Example 130.03, {4-[(2-{[6-(3-chloro-2-methylpyridin-4-yl)-1H-benzimidazol-2-yl]amino}pyridin-4-yl)methyl]piperazin-1-yl}(cyclopropyl)methanone] is 1.6-fold lower in IC50: 394 nM for the first, 250 nM for the second. The second is the more potent here.

Compared with `Cc1cc(-c2ccc3nc(Nc4cc(C(C)N5CCN(C(=O)C6CC6)CC5)ccn4)[nH]c3c2Cl)ncn1` (stereo not shown) [Example 98.03, {4-[(1R or IS)-1-(2-{[7-chloro-6-(6-methylpyrimidin-4-yl)-1H-benzimidazol-2-yl]amino}pyridin-4-yl)ethyl]piperazin-1-yl}(cyclopropyl)methanone], `Cc1nccc(-c2ccc3nc(Nc4cc(C(C)N5CCN(C(=O)C6CC6)CC5)ccn4)[nH]c3c2)n1` (single isomer, unassigned) [Example 24.05.04.B, cyclopropyl{4-[(1S or 1R)-1-(2-{[6-(2-methylpyrimidin-4-yl)-1H-benzimidazol-2-yl]amino}pyridin-4-yl)ethyl]piperazin-1-yl}methanone] is 2.2-fold lower in IC50: 76 nM for the first, 33.9 nM for the second. The second is the more potent here.

`COc1cccnc1N1CCN(Cc2ccnc(Nc3nc4ccc(-c5nc(C)no5)cc4[nH]3)c2)CC1` [Example 101.17, N-(4-{[4-(3-methoxypyridin-2-yl)piperazin-1-yl]methyl}pyridin-2-yl)-6-(3-methyl-1,2,4-oxadiazol-5-yl)-1H-benzimidazol-2-amine] showed an IC50 of 150 nM.
